Results on 37 compounds are retold here after patent US20200338084A1, “INHIBITORS OF LOW MOLECULAR WEIGHT PROTEIN TYROSINE PHOSPHATASE (LMPTP) AND USES THEREOF” (Sanford Burnham Prebys Medical Discovery Institute, priority 2018, published 2020).

The target in this test is T1, human LMPTP-A (Homo sapiens, UniProt P24666).
T1 sequence (P24666 1-158): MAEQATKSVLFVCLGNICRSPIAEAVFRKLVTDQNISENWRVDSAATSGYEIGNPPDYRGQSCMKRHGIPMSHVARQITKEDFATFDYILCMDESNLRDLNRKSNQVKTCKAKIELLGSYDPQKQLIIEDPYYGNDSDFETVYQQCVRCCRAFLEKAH
In words: Enzyme Assay of Inhibition of LMPTP-A. To be noted: phosphatase assay, OMFP or pNPP substrate, 50 mM Bis-Tris pH 6.0, 37° C. The format is biochemical. The gist of the method:
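Recombinant human LMPTP-A in 50 mM Bis-Tris pH 6.0, 1 mM DTT, 0.01% Triton X-100 at 37° C. Substrate OMFP read continuously by fluorescence (485/525 nm), or pNPP stopped with NaOH and read at 405 nm. IC50 taken from inhibitor concentration versus % activity plots.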
The term IC50 denotes the midpoint of a concentration-inhibition curve. Higher therefore signals weaker potency. With `Nc1ncn(Cc2c(Cl)cccc2Cl)c2nc(CCc3ccc(F)cc3)nc1-2` [3-[(2,6-dichlorophenyl)methyl]-8-[2-(4-fluorophenyl)ethyl]-3-hydropurine-6-ylamine], the half-inhibitory concentration (IC50) was not above 1 µM. `Cc1ccc(CNc2ncn(Cc3c(Cl)cccc3Cl)c3ncnc2-3)cc1` [[3-(2,6-Dichloro-benzyl)-3H-purin-6-yl]-(4-methyl-benzyl)-amine]: the half-maximal inhibitory concentration (IC50) lay in the range of 1 to 20 µM. Next, `Fc1ccc(F)c(Cn2cnc(NCc3ccco3)c3ncnc2-3)c1F` [Furan-2-ylmethyl-[3-(2,3,6-trifluoro-benzyl)-3H-purin-6-yl]-amine]: not below 20 µM; `CC(C)(C)c1ccccc1Nc1ncn(Cc2c(Cl)cccc2Cl)c2ncnc1-2` [{3-[(2,6-Dichlorophenyl)methyl](3-hydropurin-6-yl)}[2-(tert-butyl)phenyl]amine]: not below 20 µM.

The compound `N#Cc1ccc(-c2nc3c(N)ncn(Cc4c(Cl)cccc4Cl)c-3n2)cc1` [4-{6-Amino-3-[(2,6-dichlorophenyl)methyl]-3-hydropurin-8-yl}benzenecarbonitrile] showed a half-inhibitory concentration (IC50) not above 1 µM. As to `Cc1ccccc1Cc1nc2c(N)ncn(Cc3c(Cl)cccc3Cl)c-2n1` [3-[(2,6-dichlorophenyl)methyl]-8-[(2-methylphenyl)methyl]-3-hydropurine-6-ylamine], the IC50 was not above 1 µM. Compound `COc1ccc(-c2nc3c(N)ncn(Cc4c(Cl)cccc4Cl)c-3n2)cn1` [3-[(2,6-Dichlorophenyl)methyl]-8-(6-methoxy(3-pyridyl))-3-hydropurine-6-ylamine] gave a half-maximal inhibitory concentration (IC50) not above 1 µM. The same measure for `CC(=O)Nc1ncn(Cc2c(Cl)cccc2Cl)c2ncnc1-2` [N-[3-(2,6-Dichloro-benzyl)-3 H-purin-6-yl]-acetamide]: 1 to 20 µM; for `CCNc1ncn(Cc2c(Cl)cccc2Cl)c2ncnc1-2` [[3-(2,6-Dichloro-benzyl)-3H-purin-6-yl]-ethyl-amine]: 1 to 20 µM. In turn, `Clc1cccc(Nc2ncn(Cc3c(Cl)cccc3Cl)c3ncnc2-3)c1` [{3-[(2,6-Dichlorophenyl)methyl](3-hydropurin-6-yl)}(3-chlorophenyl)amine] registered an IC50 of 1 to 20 µM.

As to `Nc1ncn(Cc2c(Cl)cccc2Cl)c2nc(C3C4CC5CC(C4)CC3C5)nc1-2` (stereo not shown) [8-Adamantan-2-yl-3-[(2,6-dichlorophenyl)methyl]-3-hydropurine-6-ylamine], the IC50 was not above 1 µM. The compound `Cc1ccccc1Cn1cnc(NCc2ccco2)c2ncnc1-2` [Furan-2-ylmethyl-[3-(2-methyl-benzyl)-3H-purin-6-yl]-amine] came in with a 50% inhibitory concentration (IC50) not below 20 µM. The compound `FC(F)Oc1cccc(Nc2ncn(Cc3c(Cl)cccc3Cl)c3ncnc2-3)c1` [3-(2,6-dichlorobenzyl)-N-(3-(difluoromethoxy)phenyl)-3H-purin-6-amine] yielded a half-inhibitory concentration (IC50) of 1 to 20 µM.

The compound `Nc1ncn(Cc2nnn[nH]2)c2ncnc1-2` [3-((1H-tetrazol-5-yl)methyl)-3H-purin-6-amine] registered a 50% inhibitory concentration (IC50) not below 20 µM. `FC(F)(F)Oc1cccc(Nc2ncn(Cc3c(Cl)cccc3Cl)c3ncnc2-3)c1` [3-(2,6-Dichlorobenzyl)-N-(3-(trifluoromethoxy)phenyl)-3H-purin-6-amine] displayed a 50% inhibitory concentration (IC50) of 1 to 20 µM. As to `Nc1ncn(Cc2c(Cl)cccc2Cl)c2nc(C3=CCOCC3)nc1-2` [3-(2,6-dichlorobenzyl)-8-(3,6-dihydro-2H-pyran-4-yl)-3H-purin-6-amine], the IC50 was not above 1 µM. `Clc1cccc(Cl)c1Cn1cnc(Nc2ccc(N3CCOCC3)cc2)c2ncnc1-2` [{3-[(2,6-Dichlorophenyl)methyl](3-hydropurin-6-yl)}(4-morpholin-4-ylphenyl)amine] had an IC50 of 1 to 20 µM. The same measure for `Nc1ncn(Cc2c(Cl)cccc2Cl)c2nc(C3CCNCC3)nc1-2` [3-[(2,6-Dichlorophenyl)methyl]-8-(4-piperidyl)-3-hydropurine-6-ylamine]: not above 1 µM; for `CCCc1ccc(Nc2ncn(Cc3c(Cl)cccc3Cl)c3ncnc2-3)cc1` [{3-[(2,6-Dichlorophenyl)methyl](3-hydropurin-6-yl)}(4-propylphenyl)amine]: 1 to 20 µM.

On to “8-[(1E)-2-(4-fluorophenyl)vinyl]-3-[(2,6-dichlorophenyl)methyl]-3-hydropurine-6-ylamine”, for which the IC50 is not above 1 µM. Take `Nc1ncn(Cc2ccc(C(F)(F)F)cc2)c2ncnc1-2` [3-(4-(trifluoromethyl)benzyl)-3H-purin-6-amine]: the IC50 is 1 to 20 µM. `CS(=O)(=O)Nc1ncn(Cc2c(Cl)cccc2Cl)c2ncnc1-2` [N-(3-(2,6-dichlorobenzyl)-3h-purin-6-yl)methanesulfonamide] showed an IC50 not below 20 µM. With `Cn1nccc1-c1nc2c(N)ncn(Cc3c(Cl)cccc3Cl)c-2n1` [3-[(2,6-Dichlorophenyl)methyl]-8-(1-methylpyrazol-5-yl)-3-hydropurine-6-ylamine], the half-maximal inhibitory concentration (IC50) is not above 1 µM. The compound `O=C(Nc1ncn(Cc2c(Cl)cccc2Cl)c2ncnc1-2)c1ccncc1` [N-[3-(2,6-Dichloro-benzyl)-3H-purin-6-yl]-isonicotinamide] gave an IC50 not above 1 µM. As to `Nc1ncn(Cc2c(Cl)cccc2Cl)c2nc(-c3ccc(Cl)cc3)nc1-2` [3-[(2,6-Dichlorophenyl)methyl]-8-(4-chlorophenyl)-3-hydropurine-6-ylamine], the concentration for half-maximal inhibition (IC50) is not above 1 µM. For `Nc1ncn(Cc2c(Cl)cccc2Cl)c2nc(-c3cccnc3)nc1-2` [3-[(2,6-Dichlorophenyl)methyl]-8-(3-pyridyl)-3-hydropurine-6-ylamine], the half-inhibitory concentration (IC50) is not above 1 µM. With `CCCCCNc1ncn(Cc2c(Cl)cccc2Cl)c2ncnc1-2` [[3-(2,6-Dichloro-benzyl)-3H-purin-6-yl]-pentyl-amine], the half-maximal inhibitory concentration (IC50) lay within 1 to 20 µM. `Nc1ncn(Cc2c(Cl)cccc2Cl)c2nc(-c3cc(F)c(F)cc3F)nc1-2` [3-[(2,6-dichlorophenyl)methyl]-8-(2,4,5-trifluorophenyl)-3-hydropurine-6-ylamine] returned a 50% inhibitory concentration (IC50) not above 1 µM. Regarding `Nc1ncn(Cc2ccsc2)c2ncnc1-2` [3-Thiophen-3-ylmethyl-3H-purin-6-ylamine], the IC50 was not below 20 µM. Compound `Nc1ncn(Cc2c(Cl)cccc2Cl)c2nc(-c3ccc4scnc4c3)nc1-2` [8-Benzothiazol-5-yl-3-[(2,6-dichlorophenyl)methyl]-3-hydropurine-6-ylamine] came in with an IC50 not above 1 µM. Compound `N#Cc1ccc(CNc2ncn(Cc3c(Cl)cccc3Cl)c3ncnc2-3)cc1` [4-[({3-[(2,6-dichlorophenyl)methyl]-3-hydropurin-6-yl}amino)methyl]benzenecarbonitrile] showed an IC50 of 1 to 20 µM. The same measure for `Nc1ncn(Cc2c(F)cccc2F)c2ncnc1-2`: 1 to 20 µM.

In turn, `Clc1cccc(Cl)c1Cn1cnc(NCc2ccccc2)c2ncnc1-2` [Benzyl-[3-(2,6-dichloro-benzyl)-3H-purin-6-yl]-amine] returned an IC50 of 1 to 20 µM. In turn, `Nc1ncn(Cc2cccc(Cl)c2)c2ncnc1-2` [3-(3-chlorobenzyl)-3H-purin-6-amine] showed an IC50 not below 20 µM.

`COc1cccc(-c2nc3c(N)ncn(Cc4c(Cl)cccc4Cl)c-3n2)c1` [3-[(2,6-Dichlorophenyl)methyl]-8-(3-methoxyphenyl)-3-hydropurine-6-ylamine] returned an IC50 not above 1 µM. Compound `Cc1noc(C)c1Cn1cnc(N)c2ncnc1-2` [3-((3,5-dimethylisoxazol-4-yl)methyl)-3H-purin-6-amine] returned a 50% inhibitory concentration (IC50) of 1 to 20 µM. With `Brc1ccccc1Cn1cnc(NCc2ccco2)c2ncnc1-2` [[3-(2-Bromo-benzyl)-3H-purin-6-yl]-furan-2-ylmethyl-amine], the IC50 fell in the range of 1 to 20 µM.
